Results published in patent publication US12325725B2, “Cyclin-dependent kinase degraders and methods of use” (DANA-FARBER CANCER INSTITUTE, INC., priority 2018, dated 2025).
Like-named read-outs stand apart in the source and are kept apart here.

What was measured:
[1] = test system: pS727-STAT1 (CDK8 substrate) in HepG2 cells; test: Western blot of S727-STAT1 phosphorylation in IFNγ-treated HepG2 cells; format: cell-based; conditions: 18 h with IFNγ, Compound 33 at 0.5, 1, 5 μM, DCA at 0.1, 1 μM
Description: FIG. 4 is a western blot illustrating inhibition of phosphorylation of S727-STAT1, a known CDK8 substrate, to form pS727-STAT1. pS727-STAT1 and total STAT1 were from HepG2 cells independently treated for 18 h with interferon gamma (IFNγ) and 0.5 μM, 1 μM, or 5 μM Compound 33, or with IFNγ and 0.1 μM or 1 μM dehydrocortistatin A (“DCA”).

CDK8 [2] = molecular target: T1, CDK8 (Homo sapiens (Human), UniProt P49336); test: LanthaScreen Eu Kinase Binding Assay (competitive kinase binding assay); conditions: displacing the Tracer from the target kinase, read-out: Enzyme IC50
Description: The biological activities of the compounds of the present application can be assessed through a variety of methods known in the art. For example, a kinase competitive binding assay may be used to determine the activity of the compounds of the present application to bind to […]. […] The changes in the signal produced by the reporting ligand when the compound is present relative when the compound is absent are recorded, which are calculated to provide the IC50 of the compound. Compounds of the present application were tested in a competitive kinase binding assay by using commercially available assay system. For example, LanthaScreen® Eu Kinase Binding Assay (Invitrogen™) was used to measure the IC50 of the compounds of the present application in displacing the Tracer from binding to the target kinase, by following the assay protocol from Invitrogen™.
Target sequence in this assay (P49336 whole entry, looked up): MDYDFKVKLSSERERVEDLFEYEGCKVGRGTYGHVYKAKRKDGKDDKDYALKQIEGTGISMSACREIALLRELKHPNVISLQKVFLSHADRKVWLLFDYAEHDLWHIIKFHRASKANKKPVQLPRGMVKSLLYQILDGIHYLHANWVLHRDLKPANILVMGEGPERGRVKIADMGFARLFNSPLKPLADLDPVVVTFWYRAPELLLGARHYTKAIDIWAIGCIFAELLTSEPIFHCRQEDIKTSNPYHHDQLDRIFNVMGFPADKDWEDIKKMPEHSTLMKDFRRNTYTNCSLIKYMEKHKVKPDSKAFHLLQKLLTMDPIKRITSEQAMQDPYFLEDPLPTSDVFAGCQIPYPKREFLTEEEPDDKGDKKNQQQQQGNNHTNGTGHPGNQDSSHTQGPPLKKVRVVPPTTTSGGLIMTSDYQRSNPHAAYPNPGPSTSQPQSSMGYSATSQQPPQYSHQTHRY
Target sequence in this assay (P24863 whole entry partner, looked up): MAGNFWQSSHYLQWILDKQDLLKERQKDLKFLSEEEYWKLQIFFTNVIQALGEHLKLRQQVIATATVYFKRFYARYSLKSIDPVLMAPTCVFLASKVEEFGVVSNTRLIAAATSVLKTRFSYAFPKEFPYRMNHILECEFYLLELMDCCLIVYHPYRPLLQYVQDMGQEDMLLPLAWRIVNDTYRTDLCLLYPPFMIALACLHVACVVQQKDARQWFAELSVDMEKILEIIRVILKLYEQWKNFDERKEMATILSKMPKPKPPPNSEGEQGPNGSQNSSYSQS

CDK8 [3] = molecular target: T1, CDK8; conditions: cited from earlier work
Target sequence in this assay (P49336 whole entry, looked up, species assumed): as the sequence (P49336 whole entry, looked up) above
Target sequence in this assay (P24863 whole entry partner, looked up, species assumed): as the sequence (P24863 whole entry partner, looked up) above

| SMILES | IC50 (CDK8 [2]; Targeting Ligands of Table 1) | further results |
| --- | --- | --- |
| CN(C)[C@H]1CC[C@@]2(C)C(=CCC3[C@@H]4CC[C@H](c5ccc6ccncc6c5)[C@@]4(C)CC[C@@H]32)C1 (stereo in doubt) [Compound 33, (3S,8R,9S,10R,13S,14S)-17-(isoquinolin-7-yl)-N,N,10,13-tetramethyl-2,3,4,7,8,9,10,11,12,13,14,15,16,17-tetradecahydro-1H-cyclopenta[a]phenanthren-3-amine] | < 100 nM | inhibition of S727 phosphorylation (pS727-STAT1 vs total STAT1, western blot) [1]: dose-dependent inhibition |
| C[C@]12CC[C@H](O)CC1=CC[C@@H]1[C@@H]2CC[C@]2(C)C(c3ccc4ccncc4c3)=CC[C@@H]12 [Compound 1, (3S,8R,9S,10R,13S,14S)-17-(isoquinolin-7-yl)-10,13-dimethyl-2,3,4,7,8,9,10,11,12,13,14,15-dodecahydro-1H-cyclopenta[a]phenanthren-3-ol] | 101 to 200 nM | – |
| C[C@]12CC[C@H](O)C[C@@H]1CC[C@@H]1[C@@H]2CC[C@]2(C)C(c3ccc4ccncc4c3)=CC[C@@H]12 [Compound 2] | 701 to 2000 nM | – |
| C[C@]12CC[C@H](O)CC1=CC[C@@H]1[C@@H]2CC[C@]2(C)C(c3ccc4cnncc4c3)=CC[C@@H]12 [Compound 3] | > 6000 nM | – |
| C[C@]12CC[C@H](O)CC1=CC[C@@H]1[C@@H]2CC[C@]2(C)C(c3ccc4nc(N)ncc4c3)=CC[C@@H]12 [Compound 4] | 2000 to 6000 nM | – |
| C[C@]12CC[C@H](O)CC1=CC[C@@H]1[C@@H]2CC[C@]2(C)C(c3ccc4[nH]ncc4c3)=CC[C@@H]12 [Compound 6] | > 6000 nM | – |
| C[C@]12CC[C@H](O)CC1=CC[C@@H]1[C@@H]2CC[C@]2(C)C(c3ccc4cn[nH]c4c3)=CC[C@@H]12 [Compound 7] | > 6000 nM | – |
| C[C@]12CC[C@H]3[C@@H](CC=C4C[C@@H](O)CC[C@@]43C)[C@@H]1CC[C@@H]2c1ccc2ccncc2c1 [Compound 8a, (3S,8S,9S,10R,13S,14S,17S)-17-(isoquinolin-7-yl)-10,13-dimethyl-2,3,4,7,8,9,10,11,12,13,14,15,16,17-tetradecahydro-1H-cyclopenta[a]phenanthren-3-ol] | < 100 nM | – |
| C[C@]12CC[C@H](O)C[C@@H]1CC[C@@H]1[C@@H]2CC[C@]2(C)[C@@H](c3ccc4ccncc4c3)CC[C@@H]12 [Compound 8b] | 201 to 300 nM | – |
| C[C@]12CC[C@H]3[C@@H](CC=C4C[C@@H](O)CC[C@@]43C)[C@@H]1CC[C@@H]2c1ccc2cnncc2c1 [Compound 9] | > 6000 nM | – |
| C[C@]12CC[C@H]3[C@@H](CC=C4C[C@@H](O)CC[C@@]43C)[C@@H]1CC[C@@H]2c1ccc2nc(N)ncc2c1 [Compound 10] | 101 to 200 nM | – |
| C[C@]12CC[C@H]3[C@@H](CC=C4C[C@@H](O)CC[C@@]43C)[C@@H]1CC[C@@H]2c1ccc2c(N)n[nH]c2c1 [Compound 11] | 301 to 700 nM | – |
| C[C@]12CC[C@H]3[C@@H](CC=C4C[C@@H](O)CC[C@@]43C)[C@@H]1CC[C@@H]2c1ccc2[nH]ncc2c1 [Compound 12] | > 6000 nM | – |
| C[C@]12CC[C@H]3[C@@H](CC=C4C[C@@H](O)CC[C@@]43C)[C@@H]1CC[C@@H]2c1ccc2cn[nH]c2c1 [Compound 13] | > 6000 nM | – |
| C[C@]12CC[C@H]3[C@@H](CC=C4C[C@@H](O)CC[C@@]43C)[C@@H]1CC[C@@H]2c1ccc2cnccc2c1 [Compound 14] | 2000 to 6000 nM | – |
| CN(C)[C@H]1CC[C@@]2(C)[C@@H](CC[C@@H]3[C@@H]2CC[C@]2(C)[C@@H](c4ccc5ccncc5c4)CC[C@@H]32)C1 [Compound 23, (3S,8R,9S,10S,13S,14S,17S)-(isoquinolin-7-yl)-N,N,10,13-tetramethylhexadecahydro-1H-cyclopenta[a]phenanthren-3-amine] | < 100 nM | – |
| CN(C)[C@@H]1CC[C@@]2(C)[C@@H](CC[C@@H]3[C@@H]2CC[C@]2(C)C(c4ccc5ccncc5c4)=CC[C@@H]32)C1 [Compound 24] | 201 to 300 nM | – |
| CN(C)[C@@H]1CC[C@@]2(C)[C@@H](CC[C@@H]3[C@@H]2CC[C@]2(C)[C@@H](c4ccc5ccncc5c4)CC[C@@H]32)C1 [Compound 25] | < 100 nM | – |
| C[C@]12CC[C@H](n3ccnn3)C[C@@H]1CC[C@@H]1[C@@H]2CC[C@]2(C)[C@@H](c3ccc4ccncc4c3)CC[C@@H]12 [Compound 39, 7-((3S,8R,9S,10S,13S,14S,17S)-10,13-dimethyl-3-(1H-1,2,3-triazol-1-yl)hexadecahydro-1H-cyclopenta[a]phenanthren-17-yl)isoquinoline] | < 100 nM | – |
| CC(=O)N(C)[C@H]1CC[C@@]2(C)[C@@H](CC[C@@H]3[C@@H]2CC[C@]2(C)[C@@H](c4ccc5ccncc5c4)CC[C@@H]32)C1 [Compound 47, N-((3S,8R,10S,13S,14S,17S)-17-(isoquinolin-7-yl)-10,13-dimethylhexadecahydro-1H-cyclopenta[a]phenanthren-3-yl)-N-methylacetamide] | < 100 nM | – |
| CN(C(=O)CCOCCOCCOCCOCCNc1cccc2c1C(=O)N(C1CCC(=O)NC1=O)C2=O)[C@H]1CC[C@]2(C)C3CC[C@]4(C)[C@@H](c5ccc6ccncc6c5)CC[C@H]4C3CC[C@H]2C1 (stereo partly drawn) [Compound I-1, 1-((2-(2,6-dioxopiperidin-3-yl)-1,3-dioxoisoindolin-4-yl)amino)-N-((3S,5S,1&S,13S,14S,17S)-17-(isoquinolin-7-yl)-10,13-dimethylhexadecahydro-1H-cyclopenta[a]phenanthren-3-yl)-N-methyl-3,6,9,12-tetraoxapentadecan-15-amide] | – | IC50 (CDK8 [2]; bifunctional compounds): 101 to 200 nM |
| CN(C(=O)CCOCCOCCNc1cccc2c1C(=O)N(C1CCC(=O)NC1=O)C2=O)[C@H]1CC[C@]2(C)C3CC[C@]4(C)[C@@H](c5ccc6ccncc6c5)CC[C@H]4C3CC[C@H]2C1 (stereo partly drawn) [Compound I-2, 3-(2-(2-((2-(2,6-dioxopiperidin-3-yl)-1,3-dioxoisoindolin-4-yl)amino)ethoxy)ethoxy)-N-((3S,10S,17S)-17-(isoquinolin-7-yl)-10,13-dimethylhexadecahydro-1H-cyclopenta[a]phenanthren-3-yl)-N-methylpropanamide] | – | IC50 (CDK8 [2]; bifunctional compounds): 101 to 200 nM |
| CN(C(=O)CCOCCOCCNc1cccc2c1C(=O)N(C1CCC(=O)NC1=O)C2=O)[C@H]1CC[C@@]2(C)C(CCC3C4CC[C@H](c5ccc6ccncc6c5)C4(C)CCC32)C1 (stereo partly drawn) [Compound I-3, 3-(2-(2-((2-(2,6-dioxopiperidin-3-yl)-1,3-dioxoisoindolin-4-yl)amino)ethoxy)ethoxy)-N-((3S,10S,17S)-17-(isoquinolin-7-yl)-10,13-dimethylhexadecahydro-1H-cyclopenta[a]phenanthren-3-yl)-N-methylpropanamide] | – | IC50 (CDK8 [2]; bifunctional compounds): 201 to 300 nM |
| CN1C(=O)CCC(N2C(=O)c3cccc(NCCOCCOCCOCCOCCC(=O)N(C)[C@H]4CC[C@]5(C)C6CC[C@]7(C)[C@@H](c8ccc9ccncc9c8)CC[C@H]7C6CC[C@H]5C4)c3C2=O)C1=O (stereo partly drawn) [Compound I-5, N-((3S,5S,10S,13S,14S,17S)-17-(isoquinolin-7-yl)-10,13-dimethylhexadecahydro-1H-cyclopenta[a]phenanthren-3-yl)-N-methyl--((2-(1-methyl-2,6-dioxopiperidin-3-yl)-1,3-dioxoisoindolin-4-yl)amino)-3,6,9,12-tetraoxapentadecan-15-amide] | – | IC50 (CDK8 [2]; bifunctional compounds): 301 to 700 nM |
| CN(C)[C@H]1C[C@@]23CC[C@@]4(O2)C(=CC[C@]2(C)C(c5ccc6ccncc6c5)=CC[C@H]24)C=C3[C@@H](O)[C@@H]1O [DCA, dehydrocortistatin A, reference compound] | – | IC50 (CDK8 [3]): 17 nM; inhibition of S727 phosphorylation (pS727-STAT1 vs total STAT1, western blot) [1]: dose-dependent inhibition |
